# Source: patent publication US20200345746A1, “Oxazine Derivative for Use in the Prevention of Alzheimer's Disease in at Risk Patents” (Novartis AG, priority 2016, published 2020)
# Read-outs that look alike come from different tables or passages of the source.
# Key:
# [1] = Body weight, chronic 8-week dosing in wild-type mice; format: in vivo, mouse; settings: C57BL/6 mice, 8 weeks chronic treatment
# Procedure: Compound 1 and NB-360 were formulated as a suspension. […] Vehicle: […] in 0.5% methylcellulose in water.
# Body weight was taken 3 times per week (Monday, Wednesday, Friday). Subjective scoring of any hair colour changes was performed once weekly (Wednesday). Scores (% of body with grey fur): 0: No change; 1: Spots; 2: >30%; 3: >50%; 4: >75%; 5: 100%. Animals were photo-documented when fur color change was observed. Final fur color scoring was performed blinded and by a person not involved in the study.
# [2] = test system: Aβ42; assay: Acute PK/PD in APOE4-TR mice: Aβ42 in CSF; format: in vivo, mouse; settings: for Average Aβ42 CSF ± SD: n = 6
# Procedure: Compound 1 was formulated as a suspension. Vehicle or compound was given by oral administration in a volume of 10 ml/kg once. Vehicle: 0.1% Tween80 in 0.5% Methylcellulose in water.
# Analysis of Aβ40 in Mouse Brain and Aβ40 and Aβ42 in CSF
# [3] = test system: Aβ38; assay: 3-month dose-ranging study: Aβ38 in CSF; format: in vivo, human
# Text: (§1) This study is listed in ClinicalTrials.gov under the NCT02576639 Identifier code.
# (§2) The primary purpose of this study was to expand on previous safety and tolerability data obtained over 2-week and 4-week duration in the first in human study and thereby allow initiation of future long-term efficacy trials in subjects at risk of AD. In addition, data relevant for Pharmacokinetic/Pharmacodynamic modeling was obtained in order to support dose selection decisions for future efficacy studies.
# [4] = test system: Aβ40; assay: 3-month dose-ranging study: Aβ40 in CSF; format: in vivo, human; settings: for Aβ40 % change from baseline, Mean (SD) / Aβ40 % change from baseline, Median: CSF, 3 months
# Text: as §1, §2
# In the completed first-in-human and 3-month dose-ranging safety and tolerability clinical studies described in Examples 5 and 6, Aβ concentrations in CSF were obtained by means of lumbar punctures before the first dose (baseline) and respectively after 2 weeks and 3 months of multiple dosing. ApoE4 genotype also was obtained in the subjects who consented. The percent change from baseline in Aβ40 and Aβ42 concentrations was calculated in subjects who took the study treatment and had no major protocol deviation with potential impact on the evaluation of the pharmacodynamic effect. Tables 18 to 21 below provide summary statistics of the percent change from baseline by treatment group and ApoE genotype (E4 heterozygotes versus E4 non-carriers). Only one subject with CSF data was E4 homozygote (from the 3-month dose-ranging safety and tolerability study).
# [5] = test system: sAPPβ (Swe); assay: Triton TX-100 soluble sAPPβ (Swe) in APP23 mouse brain; format: in vivo; settings: APP23 mice
# Procedure: (§3) Frozen mouse forebrains were weighed and homogenized in 9 volumes (w/v) of ice-cold TBS-Complete (20 mM Tris-HCl pH 7.4, 137 mM NaCl, 1× Complete [Protease Inhibitor Cocktail Tablets: 1 836 145, Roche Diagnostics GmbH, Penzberg, Germany]) by sonication (90% duty cycle, output control 5, 40-55 pulses, [Sonifier 450, Branson]). After homogenization several 50 μl aliquots were prepared for analysis and were stored at −80° C.
# Brain homogenates were extracted with 1% Triton X-100 in buffer and the resulting supernatant was considered to represent soluble forms of APP metabolites. In addition to Aβ40 and 42, we determined the N-terminal APP fragments sAPPα (direct cleavage product of α-secretase) and sAPPβ (Swe) (direct product of BACE1 cleavage). […] Since no change in the APP expression and Aβ generation is known to happen during this age, it is assumed that the increased values in the vehicle group (18-20 mo old) arise from “leakage” out of the Aβ deposits (which increase several fold, see below).
# [6] = test system: total Aβ (40+42); assay: Formic acid soluble total Aβ (40+42) and Aβ42/40 ratio in APP23 mouse forebrain; format: in vivo
# Procedure: as §3
# Fifty microliter of forebrain homogenate was mixed with 116.6 μl 100% formic acid, resulting in a final formic acid concentration of 70%. Samples were stored on ice and vortexed every 5 minutes. For neutralization, 50 μl of the mixture were pipetted into a new tube, and 950 μl of 1 M Tris base, containing 1× Complete Protease inhibitor, was added. Tubes were stored at room temperature overnight and then centrifuged for 15 minutes at 14000 rpm in an Eppendorf Microzentrifuge at 4° C. From the top layer, 100 μl are removed and mixed with 100 μl of 3% Blocker A solution (part of the MesoScale assay kit). This sample was either directly applied to the assay plate (dilution 1:1332) or further diluted in 1% Blocker A solution.
# [7] = Drug-drug interaction study: PK of Compound 1 with the strong CYP3A4 inducer rifampicin; format: in vivo, human; settings: healthy volunteers, with rifampicin 600 mg q.d. vs Compound 1 alone
# [8] = in vivo; for AUCblood (AUC0-24 h): po
# Text: Blood samples were used to analyze whole-blood compound levels and were obtained either from tail-vein during the in-life part into EDTA tubes (CB300, Sarstedt, Germany) or from trunk blood at the day of necropsy into EDTA Eppendorf tubes (Milian S A, CatNoTOM-14, Fisher Scientific, Wohlen, Switzerland), or into serum tubes (CB300Z, Sarstedt, Nümbrecht, Germany).
# Brain was removed immediately after decapitation, rinsed with saline and sectioned sagitally down the midline. The left half of the cerebellum was used to analyze compound level and was placed into a glass tube (Chromacol, 125×5-SV T051, Welwyn Garden City, United Kingdom), weighed and frozen in dry-ice, the left half of the forebrain (without olfactory bulb) was used for Aβ analysis, and was frozen on a metal plate on dry ice and placed into protein Lo-bind tube (003 0108.116, Eppendorf, Hamburg, Germany).
# Ventral and dorsal skin were taken to analyze compound level, weighed and frozen on dry-ice.
# Brain samples were mixed with 2 volumes of KH2PO4 buffer and homogenized using the Covaris® device. Skin samples were mixed with approx. 6-fold volumes of methanol/water and homogenized using a Precellys tube. Either 30 μL of blood, brain or skin homogenate were spiked with a structurally related internal standard and subsequently mixed with an at least 6-fold excess volume acetonitrile for protein precipitation. The supernatant was injected directly into the LC/MS/MS system for analysis.
# For tissue exposure, only data at 4 and 24 h were available.
compound,measurement,setting,value
"C[C@@]1(c2nc(NC(=O)c3ncc(C(F)(F)F)cc3Cl)ccc2F)CO[C@@](C)(C(F)(F)F)C(N)=N1 [Compound 1, N-(6-((3R,6R)-5-amino-3,6-dimethyl-6-(trifluoromethyl)-3,6-dihydro-2H-1,4-oxazin-3-yl)-5-fluoropyridin-2-yl)-3-chloro-5-(trifluoromethyl)picolinamide]",body weight difference compared to vehicle,[1],No overall significant body weight difference
same,Mini AUEC (CSF Aβ42),[2]; 3 μmol/kg acute,38%
same,Average Aβ42 CSF ± SD,"[2]; 3 μmol/kg acute p.o., 4 h",0.0524 ± 0.02173 pmol/mL
same,Average Aβ42 CSF ± SD,"[2]; 3 μmol/kg acute p.o., 24 h",0.09317 ± 0.05304 pmol/mL
same,% reduction vs vehicle (CSF Aβ42),"[2]; 3 μmol/kg acute, 4 h",55%
same,% reduction vs vehicle (CSF Aβ42),"[2]; 3 μmol/kg acute, 24 h",21%
same,Mini AUEC (CSF Aβ42),[2]; 10 μmol/kg acute,50%
same,Average Aβ42 CSF ± SD,"[2]; 10 μmol/kg acute p.o., 4 h",0.02318 ± 0.00446 pmol/mL
same,Average Aβ42 CSF ± SD,"[2]; 10 μmol/kg acute p.o., 24 h",0.09438 ± 0.09019 pmol/mL
same,% reduction vs vehicle (CSF Aβ42),"[2]; 10 μmol/kg acute, 4 h",80%
same,% reduction vs vehicle (CSF Aβ42),"[2]; 10 μmol/kg acute, 24 h",20%
same,Mini AUEC (CSF Aβ42),[2]; 30 μmol/kg acute,81%
same,Average Aβ42 CSF ± SD,"[2]; 30 μmol/kg acute p.o., 4 h",0.0080 ± 0.00395 pmol/mL
same,Average Aβ42 CSF ± SD,"[2]; 30 μmol/kg acute p.o., 24 h",0.03717 ± 0.02438 pmol/mL
same,% reduction vs vehicle (CSF Aβ42),"[2]; 30 μmol/kg acute, 4 h",93%
same,% reduction vs vehicle (CSF Aβ42),"[2]; 30 μmol/kg acute, 24 h",68%
same,"Aβ38 in CSF percent change from baseline, Difference (90% CI) Cmpd 1-Placebo","[3]; month 3, 2 mg QD","−18.17 (−21.49, −14.85) %"
same,"Aβ38 in CSF percent change from baseline, LSmean (SE)","[3]; month 3, 2 mg QD",−20.58 (1.397) %
same,"Aβ38 in CSF percent change from baseline, Difference (90% CI) Cmpd 1-Placebo","[3]; month 3, 10 mg QD","−60.18 (−63.54, −56.83) %"
same,"Aβ38 in CSF percent change from baseline, LSmean (SE)","[3]; month 3, 10 mg QD",−62.60 (1.430) %
same,"Aβ38 in CSF percent change from baseline, Difference (90% CI) Cmpd 1-Placebo","[3]; month 3, 35 mg QD","−80.55 (−83.83, −77.27) %"
same,"Aβ38 in CSF percent change from baseline, LSmean (SE)","[3]; month 3, 35 mg QD",−82.96 (1.366) %
same,"Aβ38 in CSF percent change from baseline, Difference (90% CI) Cmpd 1-Placebo","[3]; month 3, 85 mg QD","−86.81 (−90.22, −83.41) %"
same,"Aβ38 in CSF percent change from baseline, LSmean (SE)","[3]; month 3, 85 mg QD",−89.23 (1.470) %
same,"Aβ40 % change from baseline, Mean (SD)","[4]; 2 mg, E4 heterozygotes",−21 (11) %
same,"Aβ40 % change from baseline, Median","[4]; 2 mg, E4 heterozygotes",−18%
same,"Aβ40 % change from baseline, Mean (SD)","[4]; 2 mg, E4 non-carriers",−24 (9) %
same,"Aβ40 % change from baseline, Median","[4]; 2 mg, E4 non-carriers",−22%
same,"Aβ40 % change from baseline, Mean (SD)","[4]; 10 mg, E4 heterozygotes",−67 (7) %
same,"Aβ40 % change from baseline, Median","[4]; 10 mg, E4 heterozygotes",−64%
same,"Aβ40 % change from baseline, Mean (SD)","[4]; 10 mg, E4 non-carriers",−64 (6) %
same,"Aβ40 % change from baseline, Median","[4]; 10 mg, E4 non-carriers",−65%
same,"Aβ40 % change from baseline, Mean (SD)","[4]; 35 mg, E4 heterozygotes",−84 (3) %
same,"Aβ40 % change from baseline, Median","[4]; 35 mg, E4 heterozygotes",−85%
same,"Aβ40 % change from baseline, Mean (SD)","[4]; 35 mg, E4 non-carriers",−82 (5) %
same,"Aβ40 % change from baseline, Median","[4]; 35 mg, E4 non-carriers",−83%
same,"Aβ40 % change from baseline, Mean (SD)","[4]; 85 mg, E4 heterozygotes",−91 (0) %
same,"Aβ40 % change from baseline, Median","[4]; 85 mg, E4 heterozygotes",−91%
same,"Aβ40 % change from baseline, Mean (SD)","[4]; 85 mg, E4 non-carriers",−91 (2) %
same,"Aβ40 % change from baseline, Median","[4]; 85 mg, E4 non-carriers",−90%
same,difference in CSF Aβ40 and Aβ42 response between ApoE4 carriers and non-carriers,[4]; first-in-human (2 weeks) and 3-month studies,no difference in CSF Aβ40 and Aβ42 response to treatment
same,PD steady-state (Aβ lowering) reached after,"[4]; healthy elderly subjects, once-daily dosing",2-3 weeks
same,"Aβ40 in CSF percent change from baseline, Difference (90% CI) Cmpd 1-Placebo","[4]; month 3, 2 mg QD","−19.87 (−23.09, −16.65) %"
same,"Aβ40 in CSF percent change from baseline, LSmean (SE)","[4]; month 3, 2 mg QD",−22.66 (1.355) %
same,"Aβ40 in CSF percent change from baseline, Difference (90% CI) Cmpd 1-Placebo","[4]; month 3, 10 mg QD","−60.18 (−63.43, −56.92) %"
same,"Aβ40 in CSF percent change from baseline, LSmean (SE)","[4]; month 3, 10 mg QD",−62.96 (1.388) %
same,"Aβ40 in CSF percent change from baseline, Difference (90% CI) Cmpd 1-Placebo","[4]; month 3, 35 mg QD","−80.41 (−83.59, −77.22) %"
same,"Aβ40 in CSF percent change from baseline, LSmean (SE)","[4]; month 3, 35 mg QD",−83.19 (1.325) %
same,"Aβ40 in CSF percent change from baseline, Difference (90% CI) Cmpd 1-Placebo","[4]; month 3, 85 mg QD","−87.62 (−90.93, −84.30) %"
same,"Aβ40 in CSF percent change from baseline, LSmean (SE)","[4]; month 3, 85 mg QD",−90.40 (1.429) %
same,sAPPβ (Swedish) change vs vehicle,[5]; 0.03 g/kg vs vehicle,−29.0%
same,sAPPβ (Swedish) change vs vehicle,[5]; 0.3 g/kg vs vehicle,−77.7%
same,reduction of soluble APP (Swe),[5]; low dose 0.03 g/kg food,29%
same,Formic acid soluble Total Aβ change vs vehicle,"[6]; APP23, 0.03 g/kg vs vehicle",−17.9%
same,Formic acid soluble Total Aβ change vs vehicle,"[6]; APP23, 0.3 g/kg vs vehicle",−79.8%
same,reduction of deposited Aβ40 and Aβ42 vs vehicle,"[6]; APP23, high dose",around 80%
same,reduction of deposited Aβ40 and Aβ42 compared to vehicles,"[6]; APP23, low dose",around 17%
same,decrease of mean AUC of Compound 1,[7],5-6 fold
same,decrease of mean Cmax of Compound 1,[7],2.5 fold
same,AUCbrain (AUC0-24 h),"[8]; C57BL/6, mouse, 8 umol/kg",11.61 µmol·h/kg
same,AUCbrain (AUC0-24 h),"[8]; C57BL/6, mouse, 50 umol/kg",88.93 µmol·h/kg
same,"reduction of blood exposure, last day vs beginning of experiment","[8]; C57BL/6, mouse, 8 weeks",around 35%
same,AUCblood (AUC0-24 h),"[8]; C57BL/6, mouse, 8 umol/kg",3.49 µM·h
same,AUCblood (AUC0-24 h),"[8]; C57BL/6, mouse, 50 umol/kg",18.53 µM·h
same,rel. AUCdorsal skin,[8]; mouse,12.6
same,rel. AUCventral skin,[8]; mouse,16.8
same,AUCdorsal skin (AUC0-24 h),"[8]; mouse, 8 umol/kg",54.3 µmol·h/kg
same,AUCventral skin (AUC0-24 h),"[8]; mouse, 8 umol/kg",78.29 µmol·h/kg
same,AUCdorsal skin (AUC0-24 h),"[8]; mouse, 50 umol/kg",271.6 µmol·h/kg
same,AUCventral skin (AUC0-24 h),"[8]; mouse, 50 umol/kg",308.7 µmol·h/kg
